Source: patent US9051304B2, “Carboxamide compounds and their use as calpain inhibitors V” (AbbVie Deutschland GmbH & Co. KG, priority 2009, dated 2015)

How the values were obtained:
Type in all cases: biochemical
[1] = biological target: T1, calpain-I isolated from human erythrocytes (Homo sapiens, UniProt P07384); test: Calpain I enzyme inhibition, kinetic fluorescence assay; settings: apparent Ki from IC50 by Cheng-Prussoff; human erythrocyte calpain-I
T1 construct: calpain-I—isolated from human erythrocytes; purchased Calbiochem 208713; host or cells: human erythrocytes (tissue isolate)
T1 sequence (P07384 1-714): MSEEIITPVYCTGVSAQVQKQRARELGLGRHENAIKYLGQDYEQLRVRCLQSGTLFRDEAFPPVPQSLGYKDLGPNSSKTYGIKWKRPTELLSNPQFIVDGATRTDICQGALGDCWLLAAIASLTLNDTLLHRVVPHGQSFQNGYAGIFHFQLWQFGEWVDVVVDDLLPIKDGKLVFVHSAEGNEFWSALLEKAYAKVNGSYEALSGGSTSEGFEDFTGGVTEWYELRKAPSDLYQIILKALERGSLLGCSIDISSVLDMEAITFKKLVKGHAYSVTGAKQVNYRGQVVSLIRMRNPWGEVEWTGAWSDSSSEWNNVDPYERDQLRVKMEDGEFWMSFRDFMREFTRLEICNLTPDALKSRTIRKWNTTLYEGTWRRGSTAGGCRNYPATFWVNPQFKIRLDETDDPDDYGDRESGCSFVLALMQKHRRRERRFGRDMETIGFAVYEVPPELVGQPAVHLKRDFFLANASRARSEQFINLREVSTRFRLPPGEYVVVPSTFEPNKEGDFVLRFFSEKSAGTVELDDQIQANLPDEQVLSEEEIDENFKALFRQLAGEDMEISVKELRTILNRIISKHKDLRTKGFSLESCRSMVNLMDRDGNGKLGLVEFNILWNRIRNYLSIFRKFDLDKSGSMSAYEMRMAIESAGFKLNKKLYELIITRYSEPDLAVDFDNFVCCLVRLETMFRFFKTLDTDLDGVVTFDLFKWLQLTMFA
T1 sequence (P04632 1-268 partner): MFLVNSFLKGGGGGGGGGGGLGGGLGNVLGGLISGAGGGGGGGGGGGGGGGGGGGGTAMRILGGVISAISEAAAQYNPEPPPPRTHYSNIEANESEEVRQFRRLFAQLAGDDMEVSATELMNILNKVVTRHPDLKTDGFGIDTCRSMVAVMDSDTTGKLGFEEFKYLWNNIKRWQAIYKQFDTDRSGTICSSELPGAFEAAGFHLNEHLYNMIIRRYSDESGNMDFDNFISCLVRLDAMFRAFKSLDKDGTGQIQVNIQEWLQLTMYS
Description: (§1) I Enzyme Inhibition in vitro:
(§2) Testing for blockade of the corresponding enzymic activities was carried out by means of kinetic fluorescence assays (excitation 390 nm, emission 460 nm).
(§3) Apparent Ki values were calculated from the experimentally determined IC50 values by the Cheng-Prussoff relation assuming a reversible competitive enzyme inhibition.
20 nM calpain-I—isolated from human erythrocytes (Calbiochem #208713), 100 μM Suc-Leu-Tyr-AMC (Bachem #I-1355) as substrate in buffer with 62 mM imidazole, 0.3 mM CaCl2, 0.10% CHAPS, 0.05% BSA, 1 mM DTT at pH 7.3 and room temperature.

[2] = biological target: T2, cathepsin B isolated from human liver (Homo sapiens, UniProt P07858); test: Cathepsin B enzyme inhibition, kinetic fluorescence assay; settings: selectivity ratio vs calpain
T2 construct: cathepsin B—isolated from human liver; purchased Calbiochem 219362; host or cells: human liver (tissue isolate)
Description: as §1, §2, §3
0.25 nM cathepsin B—isolated from human liver (Calbiochem #219362), 100 μM Z-Phe-Arg-AMC (Bachem #I-1160) as substrate 50 mM MES, 2 mM EDTA, 0.05% Brij 35, 2.5 mM L-cysteine, pH 6.0, room temperature.

[3] = biological target: T3, recombinant human cathepsin S (Homo sapiens, UniProt P25774); test: Cathepsin S enzyme inhibition, kinetic fluorescence assay; settings: selectivity ratio vs calpain
T3 construct: purchased Calbiochem 219343; host or cells: E. coli
T3 sequence (P25774 115-331): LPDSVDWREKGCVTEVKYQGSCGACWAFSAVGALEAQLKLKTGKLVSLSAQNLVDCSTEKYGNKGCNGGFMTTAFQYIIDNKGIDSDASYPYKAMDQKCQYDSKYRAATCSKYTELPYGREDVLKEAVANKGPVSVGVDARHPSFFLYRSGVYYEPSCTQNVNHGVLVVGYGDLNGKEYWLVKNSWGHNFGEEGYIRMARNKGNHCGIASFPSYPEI
Description: as §1, §2, §3
0.5 nM recombinant human cathepsin S from E. coli (Calbiochem #219343), 20 μM Z-Val-Val-Arg-AMC (Bachem #I-1540) as substrate in 50 mM MES, 2 mM EDTA, 0.05% Brij 35, 2.5 mM L-cysteine, pH 6.0, room temperature.

[4] = biological target: T4, cathepsin L isolated from human liver (Homo sapiens, UniProt P07711); test: Cathepsin L enzyme inhibition, kinetic fluorescence assay; settings: selectivity ratio vs calpain
T4 construct: cathepsin L—isolated from human liver; purchased Calbiochem 219402; host or cells: human liver (tissue isolate)
T4 sequence (P07711 114-333): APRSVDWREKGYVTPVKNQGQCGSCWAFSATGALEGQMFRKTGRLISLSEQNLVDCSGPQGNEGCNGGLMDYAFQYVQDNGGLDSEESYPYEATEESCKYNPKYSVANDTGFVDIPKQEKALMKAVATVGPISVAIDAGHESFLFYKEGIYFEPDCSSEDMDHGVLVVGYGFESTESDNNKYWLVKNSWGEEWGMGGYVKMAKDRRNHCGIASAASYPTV
Description: as §1, §2, §3
1 nM cathepsin L—isolated from human liver (Calbiochem #219402), 2 μM Z-Phe-Arg-AMC (Bachem #I-1160) as substrate in 50 mM MES, 2 mM EDTA, 0.05% Brij 35, 2.5 mM L-cysteine, pH 6.0, room temperature.

[5] = biological target: T5, cathepsin K activated from recombinant human procathepsin K (Homo sapiens, UniProt P43235); test: Cathepsin K enzyme inhibition, kinetic fluorescence assay; settings: selectivity ratio vs calpain
T5 construct: purchased Calbiochem 342001; host or cells: E. coli
T5 sequence (P43235 115-329): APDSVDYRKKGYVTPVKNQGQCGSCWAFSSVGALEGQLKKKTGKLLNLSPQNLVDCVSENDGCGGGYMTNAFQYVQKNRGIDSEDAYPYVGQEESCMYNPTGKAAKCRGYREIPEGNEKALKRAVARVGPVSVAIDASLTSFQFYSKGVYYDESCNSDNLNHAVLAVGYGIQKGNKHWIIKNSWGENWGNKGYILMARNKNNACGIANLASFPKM
Description: as §1, §2, §3
3 nM cathepsin K—activated from recombinant human procathepsin K from E. coli (Calbiochem #342001), 10 μM Z-Gly-Pro-Arg-AMC (Biomol #P-142) as substrate in 50 mM MES, 2 mM EDTA, 0.05% Brij 35, 2.5 mM L-cysteine, pH 6.0, room temperature.

| Ki [1] [µM] | SMILES | also measured |
| --- | --- | --- |
| < 0.2 | NC(=O)C(=O)C(Cc1ccccc1)NC(=O)c1cccnc1-n1ccc(-c2ccc(F)cc2)n1 (stereo not drawn) [28 (comp.), N-(3-Amino-1-benzyl-2,3-dioxopropyl)-2-[3-(4-fluorophenyl)-1H-pyrazol-1-yl]nicotinamide, reference compound] | – |
| 0.2 to 0.3 | CONC(=O)C(=O)C(Cc1ccccc1)NC(=O)c1cccnc1-n1ccc(-c2ccc(F)cc2)n1 (stereo not drawn) [Example 1, 2-[3-(4-Fluorophenyl)-1H-pyrazol-1-yl]-N-[4-(methoxyamino)-3,4-dioxo-1-phenylbutan-2-yl]pyridine-3-carboxamide] | – |
| < 0.2 | CONC(=O)C(=O)C(Cc1ccccc1)NC(=O)c1cccnc1-n1ccc(-c2ccccc2)n1 (stereo not drawn) [Example 2, N-(4-(Methoxyamino)-3,4-dioxo-1-phenylbutan-2-yl)-2-(3-phenyl-1H-pyrazol-1-yl)nicotinamide] | – |
| < 0.2 | CONC(=O)C(=O)C(Cc1ccccc1)NC(=O)c1cccnc1-n1cc(F)c(-c2ccccc2)n1 (stereo not drawn) [Example 3, 2-(4-Fluoro-3-phenyl-1H-pyrazol-1-yl)-N-(4-(methoxyamino)-3,4-dioxo-1-phenylbutan-2-yl)nicotinamide] | – |
| 0.3 to 0.6 | CONC(=O)C(=O)C(Cc1ccccc1)NC(=O)c1cccnc1-n1cc(C)c(-c2ccccc2)n1 (stereo not drawn) [Example 4, N-[4-(Methoxyamino)-3,4-dioxo-1-phenylbutan-2-yl]-2-(4-methyl-3-phenyl-1H-pyrazol-1-yl)pyridine-3-carboxamide] | – |
| 0.3 to 0.6 | CONC(=O)C(=O)C(Cc1ccc(F)cc1)NC(=O)c1cccnc1-n1ccc(-c2ccccc2)n1 (stereo not drawn) [Example 5, N-(1-(4-Fluorophenyl)-4-(methoxyamino)-3,4-dioxo-butan-2-yl)-2-(3-phenyl-1H-pyrazol-1-yl)nicotinamide] | – |
| 0.2 to 0.3 | CONC(=O)C(=O)C(Cc1cccc(F)c1)NC(=O)c1cccnc1-n1ccc(-c2ccccc2)n1 (stereo not drawn) [Example 6, N-(1-(3-Fluorophenyl)-4-(methoxyamino)-3,4-dioxobutan-2-yl)-2-(3-phenyl-1H-pyrazol-1-yl)nicotinamide] | – |
| < 0.2 | C=CCONC(=O)C(=O)C(Cc1ccccc1)NC(=O)c1cccnc1-n1ccc(-c2ccccc2)n1 (stereo not drawn) [Example 8, N-(4-(Allyloxyamino)-3,4-dioxo-1-phenylbutan-2-yl)-2-(3-phenyl-1H-pyrazol-1-yl)nicotinamide] | – |
| 0.3 to 0.6 | CONC(=O)C(=O)C(Cc1ccccc1)NC(=O)c1cccnc1-n1cc(Cl)c(-c2ccccc2)n1 (stereo not drawn) [Example 10, 2-(4-Chloro-3-phenyl-1H-pyrazol-1-yl)-N-(4-(methoxyamino)-3,4-dioxo-1-phenylbutan-2-yl)nicotinamide] | Sel cat. B (Ki(cathepsin B)/Ki(calpain) ratio) [2]: ∘; Sel cat. S (Ki(cathepsin S)/Ki(calpain) ratio) [3]: ++ (++ means 10<Ki(cathepsin S)/Ki(calpain)≦50); Sel cat. L (Ki(cathepsin L)/Ki(calpain) ratio) [4]: ++ (++ means 10<Ki(cathepsin L)/Ki(calpain)≦50); Sel cat. K (Ki(cathepsin K)/Ki(calpain) ratio) [5]: + (+ means 2≦Ki(cathepsin K)/Ki(calpain)≦4) |
| < 0.2 | CC(C)ONC(=O)C(=O)C(Cc1ccccc1)NC(=O)c1cccnc1-n1ccc(-c2ccccc2)n1 (stereo not drawn) [Example 11, N-[4-(Isopropoxyamino)-3,4-dioxo-1-phenyl-2-butanyl]-2-(3-phenyl-1H-pyrazol-1-yl)nicotinamide] | – |
| < 0.2 | CCCONC(=O)C(=O)C(Cc1ccccc1)NC(=O)c1cccnc1-n1ccc(-c2ccccc2)n1 (stereo not drawn) [Example 12, N-[3,4-Dioxo-1-phenyl-4-(propoxyamino)-2-butanyl]-2-(3-phenyl-1H-pyrazol-1-yl)nicotinamide] | – |
| 0.3 to 0.6 | CONC(=O)C(=O)C(Cc1ccccc1)NC(=O)c1cccnc1-n1ccc(-c2ccc(N3CCOCC3)cc2)n1 (stereo not drawn) [Example 13, N-[4-(Methoxyamino)-3,4-dioxo-1-phenyl-2-butanyl]-2-{3-[4-(4-morpholinyl)phenyl]-1H-pyrazol-1-yl}nicotinamide] | Sel cat. B (Ki(cathepsin B)/Ki(calpain) ratio) [2]: ∘; Sel cat. S (Ki(cathepsin S)/Ki(calpain) ratio) [3]: ++ (++ means 10<Ki(cathepsin S)/Ki(calpain)≦50); Sel cat. L (Ki(cathepsin L)/Ki(calpain) ratio) [4]: ++ (++ means 10<Ki(cathepsin L)/Ki(calpain)≦50); Sel cat. K (Ki(cathepsin K)/Ki(calpain) ratio) [5]: + (+ means 2≦Ki(cathepsin K)/Ki(calpain)≦4) |
| 0.2 to 0.3 | O=C(NOC1CCCC1)C(=O)C(Cc1ccccc1)NC(=O)c1cccnc1-n1ccc(-c2ccccc2)n1 (stereo not drawn) [Example 17, N-{4-[(Cyclopentyloxy)amino]-3,4-dioxo-1-phenyl-2-butanyl}-2-(3-phenyl-1H-pyrazol-1-yl)nicotinamide] | – |
| < 0.2 | CCONC(=O)C(=O)C(Cc1ccc(F)cc1)NC(=O)c1cccnc1-n1ccc(-c2ccccc2)n1 (stereo not drawn) [Example 18, N-[4-(Ethoxyamino)-1-(4-fluorophenyl)-3,4-dioxo-2-butanyl]-2-(3-phenyl-1H-pyrazol-1-yl)nicotinamide] | – |
| < 0.2 | CCONC(=O)C(=O)C(Cc1ccccc1)NC(=O)c1cccnc1-n1cc(F)c(-c2ccccc2)n1 (stereo not drawn) [Example 19, N-[4-(Ethoxyamino)-3,4-dioxo-1-phenyl-2-butanyl]-2-(4-fluoro-3-phenyl-1H-pyrazol-1-yl)nicotinamide] | – |
| < 0.2 | O=C(NOC1CCC1)C(=O)C(Cc1ccccc1)NC(=O)c1cccnc1-n1ccc(-c2ccccc2)n1 (stereo not drawn) [Example 20, N-{4-[(Cyclobutyloxy)amino]-3,4-dioxo-1-phenyl-2-butanyl}-2-(3-phenyl-1H-pyrazol-1-yl)nicotinamide] | – |
| 0.2 to 0.3 | O=C(NOCCN1CCOCC1)C(=O)C(Cc1ccccc1)NC(=O)c1cccnc1-n1ccc(-c2ccccc2)n1 (stereo not drawn) [Example 22, N-(4-{[2-(4-Morpholinyl)ethoxy]amino}-3,4-dioxo-1-phenyl-2-butanyl)-2-(3-phenyl-1H-pyrazol-1-yl)nicotinamide] | – |
| < 0.2 | O=C(NOCC1CC1)C(=O)C(Cc1ccccc1)NC(=O)c1cccnc1-n1ccc(-c2ccccc2)n1 (stereo not drawn) [Example 23, N-{4-[(Cyclopropylmethoxy)amino]-3,4-dioxo-1-phenyl-2-butanyl}-2-(3-phenyl-1H-pyrazol-1-yl)nicotinamide] | – |
| < 0.2 | CONC(=O)C(=O)C(Cc1ccccc1)NC(=O)c1cccnc1-n1ccc(-c2ccccc2F)n1 (stereo not drawn) [Example 25, 2-[3-(2-Fluorophenyl)-1H-pyrazol-1-yl]-N-[4-(methoxyamino)-3,4-dioxo-1-phenyl-2-butanyl]nicotinamide] | – |
